Assay results taken from article PMC4102551, “Screening and Characterisation of Antimicrobial Properties of Semisynthetic Betulin Derivatives” (PLoS ONE, 2014).
In brackets after ≈: the same amount, converted by molar mass. Read-outs that look alike come from different tables or passages of the source.

What was measured:
E. aerogenes ATCC 13048 = assay: Broth microdilution assay, E. aerogenes; type: cell-based, Enterobacter aerogenes; details: for inhibition at 50 µM: Klebsiella aerogenes, ATCC13048, 24 h, read-out: Inhibitory effect (%) E. aerogenes ATCC 13048
Method in brief: (§1)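 Broth microdilution per CLSI/EUCAST in Mueller Hinton II broth, 5×10^5 cfu/mL, 24 h at 37°C with agitation; growth by absorbance at 620 nm versus controls. Compounds first screened at 50 µM.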

E. coli ATCC 25922 = assay: Broth microdilution assay, E. coli; type: cell-based, Escherichia coli
Method in brief: as §1

E. faecalis ATCC 29212 = assay: Broth microdilution assay, E. faecalis; type: cell-based, Enterococcus faecalis; details: for Inhibitory effect (%) E. faecalis ATCC 29212 / inhibition at 50 µM: 50 µM, 24 h, inhibition of growth, mean ± SD; for inhibition at 50 µM: ATCC29212, 24 h, read-out: Inhibitory effect (%) E. faecalis ATCC 29212
Method in brief: as §1

P. aeruginosa ATCC 27853 = assay: Broth microdilution assay, P. aeruginosa; type: cell-based, Pseudomonas aeruginosa
Method in brief: as §1

S. aureus ATCC 25923 = assay: Broth microdilution assay, S. aureus; type: cell-based, Staphylococcus aureus; details: for inhibition at 50 µM: ATCC25923, 24 h
Method in brief: as §1

C. albicans ATCC 90028 = assay: Broth microdilution assay, C. albicans; type: cell-based, Candida albicans
Method in brief: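 Candida albicans ATCC 90028 was grown on Sabouraud Dextrose Agar at 27°C for 16–18 h, then suspended in sterile 0.9% saline. Broth microdilution in clear 96-well plates mixed equal volumes of yeast suspension and diluted sample. Plates were incubated with agitation at 35°C for 48 h. Absorbance at 620 nm was read at 0, 24 and 48 h, and growth inhibition was expressed as a percentage relative to controls.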

in vitro = type: cell-based, human; details: human, 24 h exposure, 5% FBS; for cytotoxicity at 24 h, 50 µM: ATP content, read-out: Cytotoxicity (%) Huh-7 cells; for IC50 at 24 h: ATP assay, read-out: IC50 cytotoxicity Huh-7 cells
Method in brief: (§2)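 Cytotoxicity read-out: intracellular ATP (CellTiter-Glo luminescence) in Huh-7 hepatoma cells seeded at 20000 cells/well, cultured overnight, then exposed to compounds for 24 h at 37°C in 5% FBS medium. Polymyxin B sulphate (15000 IU/mL) served as positive control.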

Huh-7 cells = assay: in vitro; type: cell-based, human; details: for Effect on Huh-7 cell monolayer in ATP assay: 100 µM, 24 h; for Cytotoxicity (%) Huh-7 cells: 50 µM, 24 h exposure, ATP content, 5% FBS
Method in brief: as §2

S. aureus = assay: Effect of BSA on antimicrobial activity (S. aureus microdilution assay); type: cell-based, Staphylococcus aureus; details: compound at MIC90 6.25 µM
Method: The effect of bovine serum albumin (BSA) on antimicrobial activity was assessed by using the S. aureus microdilution assay in a similar manner as described above, but with increasing concentrations of BSA, ranging from 0.023 nM to 25 µM [23].
As described above, the antimicrobial activities of betulin derivatives seen in the microdilution assay were not detectable in the host-pathogen co-culture assay. Since the assay was performed in cell culture media containing 7.5% of fetal bovine serum, this was suspected to be the reason. Serum is rich in proteins, the most abundant of these being albumin. First, we performed the normal antibacterial assay by replacing the Mueller Hinton II broth with the cell culture media. […] The activity of compound 5 was clearly affected by the added BSA: at 24 nM concentration the activity was reduced by 50% and at concentration 390 nM the activity was completely lost. As a comparison, the concentration of albumin in human serum is typically 36–48 g/L which corresponds to […] concentration. Albumin is capable of interacting with many organic and inorganic molecules and functions as a key controller of intercellular fluxes [43]–[52]. Majority of therapeutic compounds are reversibly bound to plasma proteins, but the degree and nature of the binding differs. […]

[1] = system: all microbial strains tested; assay: Primary antimicrobial screening, all strains; type: cell-based; details: 50 µM
Excerpt: Gram-negative strains Escherichia coli (ATCC 25922), Enterobacter aerogenes (ATCC 13048) and Pseudomonas aeruginosa (ATCC 27853), Gram-positive strains Staphylococcus aureus (ATCC 25923) and Enterococcus faecalis (ATCC 29212), and fungal strain Candida albicans (ATCC 90028) were obtained from Microbiologics Inc., and used for the antimicrobial screening. Strains were selected according to the guidelines set for clinical laboratories by Clinical and Laboratory Standards Institute [CLSI, formerly National Committee on Clinical Laboratory Standards [22]] and the European Committee on Antimicrobial Susceptibility Testing (EUCAST). Bacterial strains were grown on Mueller Hinton II Agar (MHA) (BBL, BD) and Mueller Hinton II broth (MHB) (BBL, BD), whereas Candida was initiated on Sabouraud Dextrose Agar (SDA) (Difco, BD) plates. Media were prepared into MilliQ water according to manufacturer’s instruction and autoclaved at 121°C for 15 min. Bacteria were plated on MHA plates and incubated at 37°C for 16–18 h. […] Absorbance was measured at 620 nm with Victor plate reader (Wallac 1420, Perkin Elmer) at 0, 4 and 24 h with the bacteria, and at 0, 24 and 48 h with Candida. The antimicrobial activity of the samples was calculated from the absorbance values by comparing to the controls, and expressed as a percentage inhibition of growth. […]

[2] = system: S. aureus, E. coli, B. subtilis and Micrococcus luteus; parameters: method as in PMID 12601674, PMID 7500642, PMID 8590637; details: ref 19, 33, 34; cited from earlier work
[3] = system: S. aureus and E. faecalis; parameters: method as in PMID 18835348; details: ref 36; cited from earlier work
[4] = system: B. subtilis, S. aureus, S. pyogenes, Staphylococcus saprophyticus, E. coli, P. aeruginosa and Shigella sonnei; parameters: method as in PMID 23684720; details: ref 37; cited from earlier work
[5] = 50 µM, 24 h, inhibition of growth, mean ± SD
[6] = 50 µM, 48 h at 35°C, inhibition of growth, mean ± SD
[7] = Escherichia coli, ATCC25922, 24 h; read-out: Inhibitory effect (%) E. coli ATCC 25922
[8] = Pseudomonas aeruginosa, ATCC27853, 24 h; read-out: Inhibitory effect (%) P. aeruginosa ATCC 27853
[9] = Staphylococcus aureus, 50 µM, 24 h, inhibition of growth, mean ± SD, read-out: Inhibitory effect (%) S. aureus ATCC 25923
[10] = Candida albicans, ATCC90028, 48 h; read-out: Inhibitory effect (%) C. albicans ATCC 90028

With C=C(C)[C@@H]1CC[C@]2(COC(=O)c3ccccc3NC(C)=O)CC[C@]3(C)C(CCC4[C@@]5(C)CC[C@H](O)C(C)(C)C5CC[C@]43C)C12 (some centres unmarked) [Compound 5, 28-O-(N-acetylanthraniloyl)betulin] the inhibition at 50 µM (E. aerogenes ATCC 13048) was 25.2 ± 2%, the inhibition at 50 µM (E. coli ATCC 25922; Escherichia coli, ATCC25922, 24 h, read-out: Inhibitory effect (%) E. coli ATCC 25922) was 0.5 ± 3.1% and the “Inhibitory effect (%) E. faecalis ATCC 29212” value (E. faecalis ATCC 29212) was 98.5±0.2%. The MIC90 (E. faecalis ATCC 29212; Enterococcus faecalis, ATCC29212, read-out: MIC90 against E. faecalis) was 6.25 µM (≈ 3.77 µg/mL), the inhibition at 50 µM (P. aeruginosa ATCC 27853; Pseudomonas aeruginosa, ATCC27853, 24 h, read-out: Inhibitory effect (%) P. aeruginosa ATCC 27853) was 12.3 ± 2.3% and the “Inhibitory effect (%) S. aureus ATCC 25923” value (S. aureus ATCC 25923; [5]) was 100.2±0.1%. The inhibition at 50 µM (S. aureus ATCC 25923; Staphylococcus aureus, read-out: Inhibitory effect (%) S. aureus ATCC 25923, 50 µM, 24 h, inhibition of growth, mean ± SD) was greater than 90%, the MIC90 (S. aureus ATCC 25923; Staphylococcus aureus, ATCC25923, read-out: MIC90 against S. aureus) was 6.25 µM (≈ 3.77 µg/mL) and the inhibition at 50 µM (C. albicans ATCC 90028; Candida albicans, ATCC90028, 48 h, read-out: Inhibitory effect (%) C. albicans ATCC 90028) was 10 ± 5.2%. For the same compound, the cytotoxicity at 24 h, 50 µM (in vitro) was 30 ± 3%, the IC50 at 24 h (in vitro) was 56 µM and the “Effect on Huh-7 cell monolayer in ATP assay” value (Huh-7 cells) was “completely destroyed the cell monolayer”. For the same compound, the “BSA concentration at which the activity was completely lost” value (S. aureus) was 390 nM and the “BSA concentration at which the activity was reduced by 50%” value (S. aureus) was 24 nM.

For C=C(C)C1CCC2(COC(C)=O)CCC3(C)C(CCC4C5(C)CCC(OC(C)=O)C(C)(C)C5CCC43C)C12 (centres unmarked) [Compound 14], the “Inhibitory effect (%) E. aerogenes ATCC 13048” value (E. aerogenes ATCC 13048; [5]) was 8.1±9.0%, the “Inhibitory effect (%) E. coli ATCC 25922” value (E. coli ATCC 25922; [5]) was -1.8±2.1% and the “Inhibitory effect (%) E. faecalis ATCC 29212” value (E. faecalis ATCC 29212) was 22.8±17.5%. The “Inhibitory effect (%) P. aeruginosa ATCC 27853” value (P. aeruginosa ATCC 27853; [5]) was 3.9±0.6%, the “Inhibitory effect (%) S. aureus ATCC 25923” value (S. aureus ATCC 25923; [5]) was 13.8±3.2% and the “Inhibitory effect (%) C. albicans ATCC 90028” value (C. albicans ATCC 90028; [6]) was -1.1±18.3%. For the same compound, the “Cytotoxicity (%) Huh-7 cells” value (Huh-7 cells) was -11.1±3.8% and the “Activity against all microbial strains tested” value [1] was “inactive”.

For C=C(C)[C@@H]1CC[C@]2(C(=O)O)CC[C@]3(C)[C@H](CC[C@@H]4[C@@]5(C)CC[C@H](O)C(C)(C)[C@@H]5CC[C@]43C)[C@@H]12 [Compound 19, betulinic acid], the “Inhibitory effect (%) E. aerogenes ATCC 13048” value (E. aerogenes ATCC 13048; [5]) was 38.2±3.0%, the inhibition at 50 µM (E. aerogenes ATCC 13048; [5]) was 38% and the inhibition at 50 µM (E. coli ATCC 25922; [7]) was 20.2 ± 6.1%. For the same compound, the “Inhibitory effect (%) E. faecalis ATCC 29212” value (E. faecalis ATCC 29212) was 55.9±5.0%, the inhibition at 50 µM (E. faecalis ATCC 29212; Enterococcus faecalis) was 56% and the inhibition at 50 µM (P. aeruginosa ATCC 27853; [8]) was 6.7 ± 1.4%. The inhibition at 50 µM (S. aureus ATCC 25923; [9]) was 22.8 ± 5.4%, the “Inhibitory effect (%) C. albicans ATCC 90028” value (C. albicans ATCC 90028; [6]) was “inactive” and the inhibition at 50 µM (C. albicans ATCC 90028; [10]) was 21.6 ± 2.6%. The cytotoxicity at 24 h, 50 µM (in vitro; Huh-7 cells) was 30%, the “Cytotoxicity (%) Huh-7 cells” value (Huh-7 cells) was 31.6±15.7% and the “Activity against S. aureus, E. coli, B. subtilis and Micrococcus luteus” value [2] was “inactive”. The “MIC against S. aureus and E. faecalis” value [3] was greater than 256 µg/mL.

With C=C(C)C1CCC2(COC(C)=O)CCC3(C)C(CCC4C5(C)CCC(=O)C(C)(C)C5CCC43C)C12 (centres unmarked) [Compound 21] the “Inhibitory effect (%) E. aerogenes ATCC 13048” value (E. aerogenes ATCC 13048; [5]) was 12.6±6.2%, the “Inhibitory effect (%) E. coli ATCC 25922” value (E. coli ATCC 25922; [5]) was 2.6±1.8% and the “Inhibitory effect (%) E. faecalis ATCC 29212” value (E. faecalis ATCC 29212) was 5.7±13.4%. For the same compound, the “Inhibitory effect (%) P. aeruginosa ATCC 27853” value (P. aeruginosa ATCC 27853; [5]) was 4.7±2.0%, the “Inhibitory effect (%) S. aureus ATCC 25923” value (S. aureus ATCC 25923; [5]) was 0.7±3.4% and the “Inhibitory effect (%) C. albicans ATCC 90028” value (C. albicans ATCC 90028; [6]) was -13.9±24.7%. The “Cytotoxicity (%) Huh-7 cells” value (Huh-7 cells) was -3.9±1.1% and the “Activity against all microbial strains tested” value [1] was “inactive”.

Work on CCn1c(=O)n2n(c1=O)C1(C(C)C)CCC3(COC(C)=O)CCC4(C)C(=C31)C2CC1C2(C)CCC(OC(C)=O)C(C)(C)C2CCC14C (centres unmarked) [Compound 43] yielded an inhibition at 50 µM (E. aerogenes ATCC 13048; [5]) of 18.5 ± 2.2%, an inhibition at 50 µM (E. coli ATCC 25922; [7]) of -3.7% and an inhibition at 50 µM (E. faecalis ATCC 29212; Enterococcus faecalis) of 57.1 ± 4.4%. For the same compound, the inhibition at 50 µM (P. aeruginosa ATCC 27853; [8]) was 1.7 ± 1.7%, the inhibition at 50 µM (S. aureus ATCC 25923; [9]) was 2.9 ± 0.7% and the inhibition at 50 µM (C. albicans ATCC 90028; [10]) was -9.7%. For the same compound, the cytotoxicity at 24 h, 50 µM (in vitro) was 85%, the IC50 at 24 h (in vitro) was 16 µM and the “Cytotoxicity (%) Huh-7 cells” value (Huh-7 cells) was 86.0±2.0%. The “Effect on Huh-7 cell monolayer in ATP assay” value (Huh-7 cells) was “completely destroyed the cell monolayer”.

For CC1(C)C=C2[C@H]3CC[C@@H]4[C@@]5(C)CC[C@H](O)C(C)(C)[C@@H]5CC[C@@]4(C)[C@]3(C)CC[C@@]2(C(=O)O)CC1 [MA, morolic acid], the “MIC against a panel of seven different bacterial species” value [4] is listed as no less than 100 µg/mL.

In the case of CC1(C)CC[C@]2(C(=O)O)CC[C@]3(C)C(=CC[C@@H]4[C@@]5(C)CC[C@H](O)C(C)(C)[C@@H]5CC[C@]43C)[C@@H]2C1 [OA, oleanolic acid], the “MIC against S. aureus and E. faecalis” value [3] is listed as 8 to 64 µg/mL.

In the case of C[C@H]1[C@H](C)CC[C@]2(C(=O)O)CC[C@]3(C)C(=CC[C@@H]4[C@@]5(C)CC[C@H](O)C(C)(C)[C@@H]5CC[C@]43C)[C@H]12 [UA, ursolic acid], the “MIC against S. aureus and E. faecalis” value [3] is listed as 4 to 8 µg/mL.
